According to patent publication US6284746A (Chinoin, Ltd., priority 1993, dated 2001):
In brackets after ≈: the same amount, converted by molar mass.

What was measured:
[1] = Solubility of taxol with soluble anionic-β-cyclodextrin polymer CDPSI (Example 4); type: physicochemical
[2] = cited from earlier work
[3] = background statement; cited from earlier work
physchem [4] = assay: physchem
Text: The suspension was filtered and the dissolved taxol determined by HPLC.

[5] = Solubilizing of taxol with HPBCD (Example 5); type: physicochemical
Text: Taxol was solubilized and formulated with 2-hydroxypropylated β-cyclodextrin. (HPBCD).

physchem [6] = conditions: water
physchem [7] = conditions: 40% aqueous dimethyl-beta-cyclodextrin
Experimental: 11.6 mg of Taxol (Sigma Chemicals Co. USA) is treated in 10 ml of 40% aqueous heptakis-2,6-di-O-methylated β-cyclodextrin at room temperature for 30 minutes, until a solution of slight haze is obtained.

physchem [8] = conditions: pH 7.6
Experimental: Randomly methylated β-cyclodextrin (average degree of substitution=1.8) was dissolved in physiological buffered saline (pH 7.6) at different concentrations and these solutions were incubated with the taxol substrate for 12 hours at room temperature. Each sample contained taxol in 5 mg/ml initial concentration. The suspensions after equilibration were membrane filtered and assayed for dissolved taxol by HPLC.

[9] = 25° C., 12 hours

## CC(=O)O[C@H]1C(=O)[C@@]2(C)[C@H]([C@H](OC(=O)c3ccccc3)[C@]3(O)C[C@H](OC(=O)[C@H](O)[C@@H](NC(=O)c4ccccc4)c4ccccc4)C(C)=C1C3(C)C)[C@]1(OC(C)=O)CO[C@@H]1C[C@@H]2O (relative stereo) [taxol, [2aR-[2aα, 4β; 4αβ,6β,9α(αR*,βS*),11α-12α,12aα, 12bα]]-β-(Benzoylamino)-α-hydroxybenzene-propanoic acid 6,12-b-bis (acetyloxy)-12-(benzoyloxy)-2a,3,4,4a, 5,6,9,10,11,12,12a,12b-dodecahydro-4,11-dihyroxy-4a,8,13,13-tetramethyl-5-oxo-7,11-methano-1H-cyclodeca[3,4]-benz-[1,2-b]oxet-9-yl ester]
[1]; 0% cdpsi, CDPSI 0%
  solubility: 0.6 µg/mL (≈ 0.703 µM)
[1]; 1% cdpsi solution, CDPSI 1%
  solubility: 1.8 µg/mL (≈ 2.11 µM)
[1]; 5% cdpsi solution, CDPSI 5%
  solubility: 3.5 µg/mL (≈ 4.1 µM)
[1]; 10% cdpsi solution, CDPSI 10%
  solubility: 10.6 µg/mL (≈ 12.4 µM)
[1]; 40% cdpsi solution, CDPSI 40%
  solubility: 56.8 µg/mL (≈ 66.5 µM)
[2]; Bartoli et al., background
  stability of taxol: generally poor stability
[2]; background statement
  sensitivity to light and pH: very sensitive to light and the pH
[2]; glycosyl- and maltosyl-β-cyclodextrins with ethanol and ethylacetate (Mikuni 1993)
  solubility of taxol: 20 to 110 µg/mL
[3]
  antitumor activity: significant antitumor activity
  products of decomposition, biological activity: biologically inactive products are forming
Physchem [4]; 10% aqueous succinyl-methyl-β-cyclodextrin
  solubility thermodynamic at 12 h: 244 µg/mL (≈ 286 µM)
Physchem [4]; 40% succinyl-methyl-β-cyclodextrin solution
  solubility thermodynamic at 12 h: 993 µg/mL (≈ 1160 µM)
[5]; 0.5% hpbcd solution, HPBCD 0.5%
  solubility: 1 µg/mL (≈ 1.17 µM)
[5]; 1% hpbcd solution, HPBCD 1%
  solubility: 1.7 µg/mL (≈ 1.99 µM)
[5]; 5% hpbcd solution, HPBCD 5%
  solubility: 6.8 µg/mL (≈ 7.96 µM)
[5]; 10% hpbcd solution, HPBCD 10%
  solubility: 34.9 µg/mL (≈ 40.9 µM)
[5]; 40% hpbcd solution, HPBCD 40%
  solubility: 100 µg/mL (≈ 118 µM)
[5]; HPBCD none
  solubility: 0.6 µg/mL (≈ 0.703 µM)
Physchem [6]
  solubility: 0.55 to 0.59 µg/mL (≈ 0.644 to 0.691 µM)
Physchem [7]
  solubility at 0.5 h: 992 to 1000 µg/mL (≈ 1160 to 1170 µM)
Physchem [8]; 1% rameb in buffered saline
  solubility thermodynamic at 12 h: 4.4 µg/mL (≈ 5.15 µM)
Physchem [8]; 5% rameb in buffered saline
  solubility thermodynamic at 12 h: 42.5 µg/mL (≈ 49.8 µM)
Physchem [8]; 10% rameb in buffered saline
  solubility thermodynamic at 12 h: 232 µg/mL (≈ 271 µM)
Physchem [8]; 40% rameb in buffered saline
  solubility thermodynamic at 12 h: 860 µg/mL (≈ 1010 µM)
Physchem [8]; buffered saline
  solubility thermodynamic at 12 h: 0.6 µg/mL (≈ 0.703 µM)

## CC(=O)O[C@@]12CO[C@@H]1C[C@H](O)[C@@]1(C)C(=O)[C@H](O)C3=C(C)[C@@H](OC(=O)[C@H](O)[C@@H](NC(=O)OC(C)(C)C)c4ccccc4)C[C@@](O)([C@@H](OC(=O)c4ccccc4)[C@H]21)C3(C)C [Taxotere, butoxycarbonyl-10-deacetyl-N-debenzoyl taxol]
[9]
  solubility enhancement relative to free taxol derivative in water: 850 times
